For one assay, the target named is T1, ALK5 (Homo sapiens, UniProt P36897).
T1 construct: purchased Reaction Biology Corp (Malvern, PA)
T1 sequence (P36897 34-503): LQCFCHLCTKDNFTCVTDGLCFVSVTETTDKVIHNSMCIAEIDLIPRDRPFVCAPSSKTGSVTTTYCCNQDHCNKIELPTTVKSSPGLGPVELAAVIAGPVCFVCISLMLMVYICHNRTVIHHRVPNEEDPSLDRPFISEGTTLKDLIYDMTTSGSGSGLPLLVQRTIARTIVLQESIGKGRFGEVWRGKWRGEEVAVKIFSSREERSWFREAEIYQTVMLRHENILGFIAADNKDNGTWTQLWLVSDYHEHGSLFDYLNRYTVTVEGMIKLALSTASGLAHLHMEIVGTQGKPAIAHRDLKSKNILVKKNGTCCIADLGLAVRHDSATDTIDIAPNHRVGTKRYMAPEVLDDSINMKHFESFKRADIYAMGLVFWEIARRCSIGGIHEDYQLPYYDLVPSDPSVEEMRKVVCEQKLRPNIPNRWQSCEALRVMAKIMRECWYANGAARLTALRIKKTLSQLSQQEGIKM
Nature of the assay: ALK5 enzyme inhibition assay (33P-ATP filter-binding, Reaction Biology Corp). Format: biochemical. The settings on record: casein substrate 1 mg/mL, 10 uM ATP. As for the experimental part: ALK5 enzyme inhibition assays were performed by Reaction Biology Corp (Malvern, PA). 1 mg/mL of peptide subtrate (casein) and 10 uM ATP were prepared in a mixture of fresh reaction buffer. The kinase was delivered into the substrate solution which was gently mixed. Compounds in 100% DMSO were added to the kinase reaction mixture by Acoustic technology (Echo550; nanoliter range) and the mixture was incubated for 20 min at room temperature. ^33P-ATP (Specific activity 10 uCi/uL) was added into the reaction mixture to initiate the reaction and the reaction mixture was incubated for 2 hours at room temperature. Radioactivity was detected by filter-binding method and kinase activity data were expressed as the percent remaining kinase activity in test samples compared to vehicle (dimethyl sulfoxide) reactions. IC50 values and curve fits were obtained using Prism (GraphPad Software).

In assay [1] the test system is TGFb/SMAD Signaling Pathway SBE reporter cell line. The assay can be described thus: TGFb reporter assay (luciferase). Format: cell-based. The settings on record: 5-6 h preincubation, then TGFb, 18 h, luminescence. The method, then: TGFb/SMAD Signaling Pathway SBE reporter cell line was obtained from BPS Bioscience. Cells were passed/expanded/stored in liquid nitrogen per supplier's instruction with the exception that growth media was changed to DMEM-C with Geneticin (DMEM supplemented with 10% fetal bovine serum, 1× NEAA, 1 mM Pyruvate, 2 mM glutamine, 50 μg/mL penicillin, 50 U/mL streptomycin and 400 ug/mL of Geneticin). The assay media was MEM supplemented with 0.5% fetal bovine serum, 1× NEAA, 1 mM Pyruvate, 50 μg/mL penicillin and 50 U/mL streptomycin.
Reporter cells were harvested from the tissue culture flasks by incubation in small quantity of Versene at room temperature for three to five minutes after the media in the flask was removed and cells rinsed with PBS. Cells were counted and diluted in the assay media at ˜0.8×10^6 cells/mL then 50 uL/well were added to 96-well assay plate. Test samples (at desired concentrations diluted in assay media) were added to assay plate containing the 50 uL/well of cells (or media only), 50 uL per well, and incubated for 5-6 hours at 37° C. in a 5% CO2 humidified incubator. After that time, 15 uL of TGFb diluted to 12.5 ng/mL in the assay media was added to the plate. Controls included TGFb titration (from 25 to 0 ng/mL) without inhibitors, and media only (without cells, inhibitor or TGFb). Plates were incubated at 37° C. in a 5% CO2 humidified incubator for 18 h. Luciferase substrate solution was subsequently added at 75 uL per well, incubated in dark with shaking at room temperature for 10 min, and luminescence was measured using a luminometer.
(A reporter such as luciferase makes a cellular process visible.)

For orientation: IC50 means the concentration that gives 50% inhibition. Low readings indicate higher potency, high ones lower potency.

Take `Cc1cccc(-c2nc(CN3Cc4ccccc4C3=O)[nH]c2-c2ccc3ncnn3c2)n1` [Compound 1.56, 2-((5-([1,2,4]triazolo[1,5-a]pyridin-6-yl)-4-(6-methylpyridin-2-yl)-1H-imidazol-2-yl)methyl)isoindolin-1-one]: the IC50 was in the range of 100 to 1000 nM on ALK5 and 10 to 100 nM in assay [1].
As to `Cc1cccc(-c2nc(CNCc3cccc4ccccc34)[nH]c2-c2ccc3ncnn3c2)n1` [Compound 1.57, 1-(5-([1,2,4]triazolo[1,5-a]pyridin-6-yl)-4-(6-methylpyridin-2-yl)-1H-imidazol-2-yl)-N-(naphthalen-1-ylmethyl)methanamine], the IC50 (at ALK5; in assay [1]) was 10 to 100 nM throughout.
Regarding `Cc1cccc(-c2nc(CNCc3ccc4ccccc4c3)[nH]c2-c2ccc3ncnn3c2)n1` [Compound 1.58, 1-(5-([1,2,4]triazolo[1,5-a]pyridin-6-yl)-4-(6-methylpyridin-2-yl)-1H-imidazol-2-yl)-N-(naphthalen-2-ylmethyl)methanamine], the IC50 (at ALK5; in assay [1]) was 100 to 1000 nM throughout.
With `Cc1cccc(-c2nc(CNCCc3cccc4ccccc34)[nH]c2-c2ccc3ncnn3c2)n1` [Compound 1.59, N-((5-([1,2,4]triazolo[1,5-a]pyridin-6-yl)-4-(6-methylpyridin-2-yl)-1H-imidazol-2-yl)methyl)-2-(naphthalen-1-yl)ethan-1-amine], the IC50 (on ALK5; in assay [1]) was 10 to 100 nM each time.
Turning to `Cc1cccc(-c2nc(CNCCc3ccnc4ccccc34)[nH]c2-c2ccc3ncnn3c2)n1` [Compound 1.60, N-((5-([1,2,4]triazolo[1,5-a]pyridin-6-yl)-4-(6-methylpyridin-2-yl)-1H-imidazol-2-yl)methyl)-2-(quinolin-4-yl)ethan-1-amine], the half-inhibitory concentration (IC50) on ALK5 fell in the range of 100 to 1000 nM; in assay [1], 10 to 100 nM.
Take `Cc1cccc(-c2nc(CNCCc3cccc4ncccc34)[nH]c2-c2ccc3ncnn3c2)n1` [Compound 1.61, N-((5-([1,2,4]triazolo[1,5-a]pyridin-6-yl)-4-(6-methylpyridin-2-yl)-1H-imidazol-2-yl)methyl)-2-(quinolin-5-yl)ethan-1-amine]: the IC50 at ALK5 was in the range of 100 to 1000 nM; in assay [1], 10 to 100 nM.

The values above are taken from patent US20210154188A1, “ALK5 INHIBITORS, CONJUGATES, AND USES THEREOF” (SILVERBACK THERAPEUTICS, INC., priority 2018, published 2021).
